Experimental data taken from patent publication US12215173B2, “Kappa opioid receptor peptide amide ligands” (priority 2019, dated 2025).
Like-named read-outs stand apart in the source and are kept apart here. Square brackets hold non-standard residues; d marks the D form. Peptide text beside a SMILES is read from it. * marks the point of attachment. Piperidin1yl(4-NH2,4-CO2Me) = COC(=O)C1(N)CCN(*)CC1; Piperidin1yl(4-NH2,4-COOH) = NC1(C(=O)O)CCN(*)CC1

Assays:
[1] = biological target: recombinant human mu (MOR) opioid receptor (Homo sapiens (Human), UniProt P35372); experiment: Opioid receptor radioligand binding assay, MOR
[2] = biological target: recombinant human delta (DOR) opioid receptor (Homo sapiens (Human), UniProt P41143); experiment: Opioid receptor radioligand binding assay, DOR
[3] = biological target: Opioid Kappa Receptor (recombinant human, HEK293 cells) (Homo sapiens (Human), UniProt P41145); experiment: cell-based; conditions: read-out: EC50
[4] = biological target: recombinant human kappa (KOR) opioid receptor (Homo sapiens (Human), UniProt P41145); experiment: biochemical; format: binding; conditions: HEK293 cell membranes, 0.5 nM [3H]diprenorphine
[5] = HEK293 cell membranes, 0.5 nM [3H]DAMGO, read-out: MOR, IC50
[6] = HEK293 cell membranes, 0.5 nM [3H]DADLE, read-out: DOR, IC50

Chain of recombinant human delta (DOR) opioid receptor (P41143 whole entry, looked up): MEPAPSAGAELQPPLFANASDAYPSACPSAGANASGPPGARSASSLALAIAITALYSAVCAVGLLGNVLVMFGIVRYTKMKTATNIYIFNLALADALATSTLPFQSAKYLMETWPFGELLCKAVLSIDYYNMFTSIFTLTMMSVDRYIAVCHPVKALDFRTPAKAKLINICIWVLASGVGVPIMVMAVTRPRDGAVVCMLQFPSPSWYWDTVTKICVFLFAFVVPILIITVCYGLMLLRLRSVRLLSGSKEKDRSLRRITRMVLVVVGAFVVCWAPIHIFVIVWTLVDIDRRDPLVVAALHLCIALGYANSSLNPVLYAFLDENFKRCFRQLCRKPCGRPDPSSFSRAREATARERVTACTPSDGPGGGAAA

Row | Compound | IC50 [1, 5] [nM] | IC50 [2, 6] [nM] | EC50 [3] [nM] | IC50 [4] [nM] | IC50 [1] [nM] | IC50 [2] [nM]
1 | COC(=O)/C=C/C(=O)N1CCC(NC(=O)[C@@H](CCCCN)NC(=O)[C@@H](CC(C)C)NC(=O)[C@@H](Cc2ccccc2)NC(=O)[C@H](N)Cc2ccccc2)CC1 [Compound 13-18] | > 10000 | > 10000 | 39.3 | 2 | – | –
2 | CC(C)C[C@@H](NC(=O)[C@@H](Cc1ccccc1)NC(=O)[C@H](N)Cc1ccccc1)C(=O)N[C@H](CCCCN)C(=O)NCc1ccncc1 [Compound 13-53] | – | – | 12.6 | 2.01 | 8750 | > 10000
3 | CC(C)C[C@@H](NC(=O)[C@@H](Cc1ccccc1)NC(=O)[C@H](N)Cc1ccccc1)C(=O)N[C@H](CCCCN)C(=O)N1CC(=O)NC(=O)C1 [Compound 13-63] | > 10000 | > 10000 | 5.2 | 1.81 | – | –
4 | CC(C)C[C@@H](NC(=O)[C@@H](Cc1ccccc1)NC(=O)[C@H](N)Cc1ccccc1)C(=O)N[C@H](CCCCN)C(=O)N1CCNC(=O)C1 [Compound 13-14] | > 10000 | > 10000 | 12.9 | 0.21 | – | –
5 | CC(C)C[C@@H](NC(=O)[C@@H](Cc1ccccc1)NC(=O)[C@H](N)Cc1ccccc1)C(=O)N[C@H](CCCCN)C(=O)N1CCC(NC(=O)C(=O)N(C)C)CC1 [Compound 13-16] | 215 | 2410 | 19.4 | 0.37 | – | –
6 | COCCOCCNC(=O)[C@@H](CCCCN)NC(=O)[C@@H](CC(C)C)NC(=O)[C@@H](Cc1ccccc1)NC(=O)[C@H](N)Cc1ccccc1 [Compound 13-4] | > 10000 | > 10000 | 13.5 | 2.8 | – | –
7 | CC(C)C[C@@H](NC(=O)[C@@H](Cc1ccccc1)NC(=O)[C@H](N)Cc1ccccc1)C(=O)N[C@H](CCCCN)C(=O)N1CCC(NC(=O)C(=O)O)CC1 [Compound 13-30] | > 10000 | > 10000 | 4.77 | 0.15 | – | –
8 | CC(C)C[C@@H](NC(=O)[C@@H](Cc1ccccc1)NC(=O)[C@H](N)Cc1ccccc1)C(=O)N[C@H](CCCCN)C(=O)NC1CCN(C(=O)C(=O)N(C)C)CC1 [Compound 13-17] | > 10000 | > 10000 | 22 | 23.4 | – | –
9 | COC(=O)[C@@H](N)CNC(=O)[C@@H](CCCCN)NC(=O)[C@@H](CC(C)C)NC(=O)[C@@H](Cc1ccccc1)NC(=O)[C@H](N)Cc1ccccc1 [Compound 13-12] | > 10000 | > 10000 | 7.07 | 6.6 | – | –
10 | COC(=O)/C=C/C(=O)NC1CCN(C(=O)[C@@H](CCCCN)NC(=O)[C@@H](CC(C)C)NC(=O)[C@@H](Cc2ccccc2)NC(=O)[C@H](N)Cc2ccccc2)CC1 [Compound 13-19] | > 727 | > 10000 | 75.8 | 0.33 | – | –
11 | CC(C)C[C@@H](NC(=O)[C@@H](Cc1ccccc1)NC(=O)[C@H](N)Cc1ccccc1)C(=O)N[C@H](CCCCN)C(=O)N1CCN(C(=O)NC2CC2)CC1 [Compound 13-48] | – | – | 5.69 | 0.36 | > 10000 | > 10000
12 | CC(C)C[C@@H](NC(=O)[C@@H](Cc1ccccc1)NC(=O)[C@H](N)Cc1ccccc1)C(=O)N[C@H](CCCCN)C(=O)N1CCC(N)(C(=O)OCCO)C1 (stereo partly shown) [Compound 50] | 7530 | > 10000 | 9.07 | 0.39 | – | –
13 | CC(C)C[C@@H](NC(=O)[C@@H](Cc1ccccc1)NC(=O)[C@H](N)Cc1ccccc1)C(=O)N[C@H](CCCCN)C(=O)N1CCC(NC(=O)C(N)C(=O)O)CC1 (stereo partly shown) [Compound 13-40] | 6390 | > 10000 | 7.48 | 0.3 | – | –
14 | CNC(=O)NC1CCN(C(=O)[C@@H](CCCCN)NC(=O)[C@@H](CC(C)C)NC(=O)[C@@H](Cc2ccccc2)NC(=O)[C@H](N)Cc2ccccc2)CC1 [Compound 13-60] | – | – | 14.3 | 0.42 | > 10000 | > 10000
15 | CC(C)C[C@@H](NC(=O)[C@@H](Cc1ccccc1)NC(=O)[C@H](N)Cc1ccccc1)C(=O)N[C@H](CCCCN)C(=O)N1CCOCCOCCOCC1 [Compound 13-15] | > 10000 | > 10000 | 51.5 | 0.41 | – | –
16 | CCOC(=O)C(=O)NC1CCN(C(=O)[C@@H](CCCCN)NC(=O)[C@@H](CC(C)C)NC(=O)[C@@H](Cc2ccccc2)NC(=O)[C@H](N)Cc2ccccc2)CC1 [Compound 13-31] | 172 | > 10000 | 17.9 | 0.28 | – | –
17 | CC(C)C[C@@H](NC(=O)[C@@H](Cc1ccccc1)NC(=O)[C@H](N)Cc1ccccc1)C(=O)N[C@H](CCCCN)C(=O)N1CCN(C(=O)C(=O)N(C)C)CC1 [Compound 13-26] | > 10000 | > 10000 | 10.2 | 1.83 | – | –
18 | CC(C)C[C@@H](NC(=O)[C@@H](Cc1ccccc1)NC(=O)[C@H](N)Cc1ccccc1)C(=O)N[C@H](CCCCN)C(=O)NCc1ccnc(C(=O)O)c1 [Compound 13-8] | > 10000 | > 10000 | 14.7 | 6.04 | – | –
19 | CCNC(=O)C(=O)NC1CCN(C(=O)[C@@H](CCCCN)NC(=O)[C@@H](CC(C)C)NC(=O)[C@@H](Cc2ccccc2)NC(=O)[C@H](N)Cc2ccccc2)CC1 [Compound 13-35] | 8430 | > 10000 | 10.8 | 0.31 | – | –
20 | CC(C)C[C@@H](NC(=O)[C@@H](Cc1ccccc1)NC(=O)[C@H](N)Cc1ccccc1)C(=O)N[C@H](CCCCN)C(=O)N1CCC(N)(C(=O)OCCN)C1 (stereo partly shown) [Compound 55] | 8530 | > 10000 | 9.36 | 0.45 | – | –
21 | CC(C)C[C@@H](NC(=O)[C@@H](Cc1ccccc1)NC(=O)[C@H](N)Cc1ccccc1)C(=O)N[C@H](CCCCN)C(=O)NCc1cc[nH]c(=O)c1 [Compound 13-9] | > 10000 | > 10000 | 18.1 | 0.41 | – | –
22 | CC(C)C[C@@H](NC(=O)[C@@H](Cc1ccccc1)NC(=O)[C@H](N)Cc1ccccc1)C(=O)N[C@H](CCCCN)C(=O)N1CCC(NC(=O)C[C@H](N)C(N)=O)CC1 [Compound 13-38] | – | – | 6.08 | 0.3 | > 10000 | > 10000
23 | CC(C)C[C@@H](NC(=O)[C@@H](Cc1ccccc1)NC(=O)[C@H](N)Cc1ccccc1)C(=O)N[C@H](CCCCN)C(=O)N1CCC(N)(C(=O)OC2CC2)C1 (stereo partly shown) [Compound 40] | – | – | 11.9 | 0.41 | > 10000 | > 1000
24 | COC(=O)C1(N)CCN(C(=O)CNC(=O)[C@@H](CCCCN)NC(=O)[C@@H](CC(C)C)NC(=O)[C@@H](Cc2ccccc2)NC(=O)[C@H](N)Cc2ccccc2)CC1 [Compound 66] (H-[dF][dF][dL][dK]G-{Piperidin1yl(4-NH2,4-CO2Me)}) | – | – | 12.9 | 20.9 | 307 | > 10000
25 | CC(C)C[C@@H](NC(=O)[C@@H](Cc1ccccc1)NC(=O)[C@H](N)Cc1ccccc1)C(=O)N[C@H](CCCCN)C(=O)NCC(=O)N1CCC(N)(C(=O)O)CC1 [Compound 67] (H-[dF][dF][dL][dK]G-{Piperidin1yl(4-NH2,4-COOH)}) | – | – | 51.5 | 24.8 | 5150 | > 10000
26 | COCCOC(=O)C1(N)CCN(C(=O)[C@@H](CCCCN)NC(=O)[C@@H](CC(C)C)NC(=O)[C@@H](Cc2ccccc2)NC(=O)[C@H](N)Cc2ccccc2)C1 (stereo partly shown) [Compound 45] | 7370 | > 10000 | 30.2 | 0.33 | – | –
27 | CC(C)C[C@@H](NC(=O)[C@@H](Cc1ccccc1)NC(=O)[C@H](N)Cc1ccccc1)C(=O)N[C@H](CCCCN)C(=O)N1CCC(NC(=O)CNC(N)=O)CC1 [Compound 13-55] | – | – | 20.4 | 0.35 | > 10000 | > 10000
28 | CCNC(=O)N1CCN(C(=O)[C@@H](CCCCN)NC(=O)[C@@H](CC(C)C)NC(=O)[C@@H](Cc2ccccc2)NC(=O)[C@H](N)Cc2ccccc2)CC1 [Compound 13-64] | > 10000 | > 10000 | 2.91 | 0.47 | – | –
